# Read-outs that look alike come from different tables or passages of the source. No end group written: not given here.
# What was measured:
# [1] = target: T1, purified porcine DPP-4 (Sus scrofa, UniProt P22411); experiment: In vitro DPP-4 stability (RP-HPLC and MALDI-ToF degradation profiles); format: in vitro ADME; conditions: for DPP-4 stability: pH 7.4
# T1 construct: purchased Sigma-Aldrich
# Protocol: To establish in vitro stability of PP and [P^3]PP, peptides (10 μg) were incubated with purified porcine DPP-4 (5 mU in 50 mmol/l triethanolamine/HCl, pH 7.4; Sigma-Aldrich) for 0-8 hours and degradation profiles examined using RP-HPLC and MALDI-ToF, employing the same systems as outlined above. Sequence of native PP and [P3]PP using one letter amino acid notation. The amino acid substitution in [P3]PP is denoted by bold underlined text. In vitro DPP-4 stability was assessed following incubation of test peptides with purified DPP-4 (5 mU) for 0-8 h.
# [2] = system: BRIN-BD11 cells; experiment: Beta-cell proliferation (Ki-67 staining), with and without Y4 antagonist (S)-VU0637120; format: cell-based, rodent; conditions: 10^-8 and 10^-6 M, 18 h
# Protocol: FIG. 1 illustrates the effects PP peptides on cell viability, insulin release, proliferation and apoptosis from rodent BRIN-BD11 cells. (A) Cells were incubated with test peptides (10^−8-10^−6 M) for 18 h prior to addition of MTT. (B, C) Cells were incubated (20 min) with (B) 16.7 mM glucose or (C) 16.7 mM glucose supplemented with alanine (10 mM), alone and together with test peptides (10^−12-10^−6 M) and insulin secretion assessed by RIA. (D, E) To assess effects on BRIN BD11 beta-cell proliferation and apoptosis and receptor selectivity, cells were incubated with test peptides (10^−8-10^−6 M) alone, or together with cytokine mix (IL-1β 100 Uml, IFN-γ 20 U/ml, TNF-α 200 U/ml), in the absence and presence of the Y4 antagonist, (S)-VU0637120, (10^−5 M), as specified, for 18 h prior to staining for (D) Ki-67 or (E) TUNEL. Values are mean±SEM (n=8). *p<0.05, **p<0.01 and ***p<0.001 compared with appropriate control culture, namely (A, D, E) media alone or (B, C) 16.7 mM glucose. ^Δp<0.05, ^ΔΔp<0.01, ^ΔΔΔp<0.001 compared to (C) 10 mM alanine or (E) cytokine mix. ^φp<0.05, ^φφp<0.01, ^φφφp<0.001 compared to effects in the absence of the NPYR4 antagonist (S)-VU0637120. […] Proliferation/TUNEL positive frequency was determined using the cell-counter function on ImageJ Software and expressed as % of total cells analysed, as described previously from our laboratory. […]
# T1 sequence (P22411 whole entry): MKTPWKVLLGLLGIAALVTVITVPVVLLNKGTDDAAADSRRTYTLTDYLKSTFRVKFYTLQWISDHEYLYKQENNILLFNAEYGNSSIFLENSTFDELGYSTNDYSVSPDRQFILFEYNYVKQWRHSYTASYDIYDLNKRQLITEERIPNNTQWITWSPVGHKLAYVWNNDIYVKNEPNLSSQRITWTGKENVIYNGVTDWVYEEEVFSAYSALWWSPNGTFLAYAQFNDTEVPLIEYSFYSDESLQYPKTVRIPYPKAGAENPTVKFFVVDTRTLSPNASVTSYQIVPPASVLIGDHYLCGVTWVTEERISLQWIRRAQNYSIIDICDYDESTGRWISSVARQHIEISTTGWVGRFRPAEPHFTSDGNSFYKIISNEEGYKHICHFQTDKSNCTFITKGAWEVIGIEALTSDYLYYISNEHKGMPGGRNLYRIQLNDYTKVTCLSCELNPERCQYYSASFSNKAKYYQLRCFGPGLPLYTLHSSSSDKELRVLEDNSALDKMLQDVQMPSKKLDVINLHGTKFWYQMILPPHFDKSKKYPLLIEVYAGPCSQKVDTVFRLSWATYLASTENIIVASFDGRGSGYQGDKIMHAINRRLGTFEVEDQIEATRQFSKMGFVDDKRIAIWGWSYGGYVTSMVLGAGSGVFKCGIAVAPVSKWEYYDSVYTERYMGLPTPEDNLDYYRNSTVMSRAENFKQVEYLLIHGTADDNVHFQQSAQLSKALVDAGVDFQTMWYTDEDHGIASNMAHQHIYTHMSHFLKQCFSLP
molecule,measurement,setting,value
CC[C@H](C)[C@H](NC(=O)[C@H](Cc1ccc(O)cc1)NC(=O)[C@H](CCCNC(=N)N)NC(=O)[C@H](CCCNC(=N)N)NC(=O)[C@H](CC(C)C)NC(=O)[C@H](CC(=O)O)NC(=O)[C@H](C)NC(=O)[C@H](C)NC(=O)[C@H](Cc1ccc(O)cc1)NC(=O)[C@H](CCC(N)=O)NC(=O)[C@H](C)NC(=O)[C@H](CCSC)NC(=O)[C@H](CCC(N)=O)NC(=O)[C@H](CCC(=O)O)NC(=O)[C@@H]1CCCN1C(=O)[C@@H](NC(=O)[C@H](C)NC(=O)[C@H](CC(N)=O)NC(=O)[C@H](CC(=O)O)NC(=O)CNC(=O)[C@@H]1CCCN1C(=O)[C@H](Cc1ccc(O)cc1)NC(=O)[C@@H](NC(=O)[C@@H]1CCCN1C(=O)[C@H](CCC(=O)O)NC(=O)[C@H](CC(C)C)NC(=O)[C@@H]1CCCN1C(=O)[C@H](C)N)C(C)C)[C@@H](C)O)C(=O)N[C@@H](CC(N)=O)C(=O)N[C@@H](CCSC)C(=O)N[C@@H](CC(C)C)C(=O)N[C@H](C(=O)N[C@@H](CCCNC(=N)N)C(=O)N1CCC[C@H]1C(=O)N[C@@H](CCCNC(=N)N)C(=O)N[C@@H](Cc1ccc(O)cc1)C(N)=O)[C@@H](C)O [Native PP],DPP-4 mediated degradation,[1],"generation of the N-terminally cleaved product, PP(3-36)"
same,DPP-4 stability,[1],<2 h
APPEPVYPGDNAKPEQMAQYAADLRRYINMKTRPRY-NH2 (C-terminus assumed) [[P^3]PP],DPP-4 mediated degradation,"[1]; incubation with DPP-4, 0-8 h",completely resistant
same,DPP-4 stability,"[1]; purified DPP-4 (5 mU), incubation 0-8 h",>8 h
GLP-1: GLP-1 (10^-8 and 10^-6 M) employed as control in proliferation studies,BRIN-BD11 cell proliferation (Ki-67),[2],augmented

# Reference: patent publication US20260097101A1, “Compositions for Use in the Treatment of Diabetes or Obesity” (Dia Beta Labs Ltd, priority 2022, published 2026)
